{
  "source": "patent US9168259B2",
  "about": "(GRÜNENTHAL GMBH, priority 2010, dated 2015)",
  "molecular_target": "T1, KCNQ2/3 channels (Homo sapiens, UniProt O43525+O43526)",
  "T1 construct": "expressed in transfected cells",
  "T1 sequence (O43526 whole entry)": "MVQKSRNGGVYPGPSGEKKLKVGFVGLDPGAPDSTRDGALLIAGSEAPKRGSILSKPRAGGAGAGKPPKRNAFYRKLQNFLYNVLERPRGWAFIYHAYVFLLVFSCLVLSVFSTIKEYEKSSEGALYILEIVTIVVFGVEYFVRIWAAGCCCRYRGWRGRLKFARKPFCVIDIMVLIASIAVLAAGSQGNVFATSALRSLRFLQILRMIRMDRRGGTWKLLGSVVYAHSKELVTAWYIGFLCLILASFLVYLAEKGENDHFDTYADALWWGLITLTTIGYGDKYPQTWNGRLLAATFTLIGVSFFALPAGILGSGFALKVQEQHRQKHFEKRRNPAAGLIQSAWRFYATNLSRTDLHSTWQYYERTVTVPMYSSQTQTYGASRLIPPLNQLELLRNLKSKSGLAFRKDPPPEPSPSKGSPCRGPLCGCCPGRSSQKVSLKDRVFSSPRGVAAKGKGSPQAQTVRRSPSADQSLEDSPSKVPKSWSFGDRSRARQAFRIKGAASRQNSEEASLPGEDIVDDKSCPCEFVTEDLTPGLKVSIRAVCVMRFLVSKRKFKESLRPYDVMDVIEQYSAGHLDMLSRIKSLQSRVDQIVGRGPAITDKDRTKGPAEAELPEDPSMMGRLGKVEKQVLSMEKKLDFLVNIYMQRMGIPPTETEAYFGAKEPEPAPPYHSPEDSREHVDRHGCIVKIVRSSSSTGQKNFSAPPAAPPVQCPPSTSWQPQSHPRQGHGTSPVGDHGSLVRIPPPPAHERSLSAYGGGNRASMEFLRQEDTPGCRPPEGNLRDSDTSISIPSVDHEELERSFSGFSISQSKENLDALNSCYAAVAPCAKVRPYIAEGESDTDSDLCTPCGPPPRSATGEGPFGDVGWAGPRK",
  "T1 sequence (O43525 whole entry)": "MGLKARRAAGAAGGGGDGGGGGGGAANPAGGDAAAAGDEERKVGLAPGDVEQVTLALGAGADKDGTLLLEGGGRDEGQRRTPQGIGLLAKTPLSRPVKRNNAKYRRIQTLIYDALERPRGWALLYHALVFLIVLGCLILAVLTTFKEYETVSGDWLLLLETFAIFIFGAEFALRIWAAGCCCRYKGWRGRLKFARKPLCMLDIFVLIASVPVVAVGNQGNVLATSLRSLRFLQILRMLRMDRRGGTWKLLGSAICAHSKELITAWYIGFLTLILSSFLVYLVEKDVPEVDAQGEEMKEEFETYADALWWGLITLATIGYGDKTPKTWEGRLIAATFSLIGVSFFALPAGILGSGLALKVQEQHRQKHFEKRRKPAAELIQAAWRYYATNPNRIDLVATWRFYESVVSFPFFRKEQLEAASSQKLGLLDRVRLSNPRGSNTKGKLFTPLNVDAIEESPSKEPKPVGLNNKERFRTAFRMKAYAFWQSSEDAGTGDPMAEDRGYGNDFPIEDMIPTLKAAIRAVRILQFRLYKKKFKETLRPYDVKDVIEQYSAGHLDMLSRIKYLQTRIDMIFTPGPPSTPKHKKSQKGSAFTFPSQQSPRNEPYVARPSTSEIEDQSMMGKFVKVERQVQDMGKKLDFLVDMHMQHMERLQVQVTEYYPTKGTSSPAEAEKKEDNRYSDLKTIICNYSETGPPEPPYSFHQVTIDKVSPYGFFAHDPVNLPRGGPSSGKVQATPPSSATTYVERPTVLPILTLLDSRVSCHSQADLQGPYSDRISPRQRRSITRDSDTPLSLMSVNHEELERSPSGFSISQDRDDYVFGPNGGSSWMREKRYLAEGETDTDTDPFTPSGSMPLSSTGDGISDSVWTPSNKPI",
  "test": "Fluorescence assay using a voltage sensitive dye (fluorimetry)",
  "assay_type": "cell-based",
  "conditions": "CHO-K1 cells expressing KCNQ2/3; for Emax: CHO-K1, plateau effect relative to saturated retigabine (50 μM) = 100%, negative values = antagonistic, read-out: Fluorimetry % efficacy (retigabine = 100%); for pEC50: IC50 where % efficacy is negative, read-out: Fluorimetry EC50/IC50",
  "note": "pEC50: −log10 of the molar value.",
  "data": [
    {"compound": "Cc1cc(N2CCOCC2)nc(N(C)C)c1C(=O)NCc1cc(F)cc(F)c1", "note": "[Example 242, N-[(3,5-Difluoro-phenyl)-methyl]-2-dimethylamino-4-methyl-6-morpholin-4-yl-pyridine-3-carboxylic acid amide]", "values": [
      {"measurement": "Emax", "value": 214, "unit": "%"},
      {"measurement": "pEC50", "value": 6.44}
    ]},
    {"compound": "CCSc1nc(N2CCn3cc(C(F)(F)F)nc3C2)cc(C)c1C(=O)NCc1cccc(F)c1", "note": "[Example 243, 2-Ethylsulfanyl-N-[(3-fluorophenyl)-methyl]-4-methyl-6-[2-(trifluoromethyl)-5,6,7,8-tetrahydro-imidazo[1,2-a]pyrazin-7-yl]-pyridine-3-carboxylic acid amide]", "values": [
      {"measurement": "Emax", "value": 105, "unit": "%"},
      {"measurement": "pEC50", "value": 5.89}
    ]},
    {"compound": "Cc1cc(N2CCOCC2)nc(N(C)C)c1C(=O)NCCCC(C)(C)C", "note": "[Example 245, 2-Dimethylamino-N-(4,4-dimethyl-pentyl)-4-methyl-6-morpholin-4-yl-pyridine-3-carboxylic acid amide]", "values": [
      {"measurement": "Emax", "value": 225, "unit": "%"},
      {"measurement": "pEC50", "value": 6.46}
    ]},
    {"compound": "Cc1cc(N2CCOCC2)nc(N(C)C)c1C(=O)NCCCC(F)(F)F", "note": "[Example 246, 2-Dimethylamino-4-methyl-6-morpholin-4-yl-N-(4,4,4-trifluoro-butyl)-pyridine-3-carboxylic acid amide]", "values": [
      {"measurement": "Emax", "value": 173, "unit": "%"},
      {"measurement": "pEC50", "value": 5.39}
    ]},
    {"compound": "CCSc1nc(N2CCOCC2)cc(C)c1C(=O)NCc1ccc(S(C)(=O)=O)cc1", "note": "[Example 247, 2-Ethylsulfanyl-4-methyl-N-[(4-methylsulfonyl-phenyl)-methyl]-6-morpholin-4-yl-pyridine-3-carboxylic acid amide]", "values": [
      {"measurement": "Emax", "value": 38, "unit": "%"}
    ]},
    {"compound": "CCSc1nc(N2CCOC[C@H]2COC)cc(C)c1C(=O)NCc1ccc(F)cc1", "note": "[Example 248, 2-Ethylsulfanyl-N-[(4-fluorophenyl)-methyl]-6-[(3R)-3-(methoxymethyl)-morpholin-4-yl]-4-methyl-pyridine-3-carboxylic acid amide]", "values": [
      {"measurement": "Emax", "value": 223, "unit": "%"},
      {"measurement": "pEC50", "value": 6.50}
    ]},
    {"compound": "CCSc1nc(N2CCOC[C@@H]2COC)cc(C)c1C(=O)NCc1ccc(F)cc1", "note": "[Example 249, 2-Ethylsulfanyl-N-[(4-fluorophenyl)-methyl]-6-[(3S)-3-(methoxymethyl)-morpholin-4-yl]-4-methyl-pyridine-3-carboxylic acid amide]", "values": [
      {"measurement": "Emax", "value": 129, "unit": "%"},
      {"measurement": "pEC50", "value": 7.09}
    ]},
    {"compound": "Cc1cc(N2CCOCC2)nc(C(C)(C)C)c1C(=O)NCc1cccc(F)c1", "note": "[Example 250, 2-tert-Butyl-N-[(3-fluorophenyl)-methyl]-4-methyl-6-morpholin-4-yl-pyridine-3-carboxylic acid amide]", "values": [
      {"measurement": "Emax", "value": 196, "unit": "%"},
      {"measurement": "pEC50", "value": 6.43}
    ]},
    {"compound": "CCSc1nc(N2CCN(CC(F)(F)F)CC2)cc(C)c1C(=O)NCc1cccc(F)c1", "note": "[Example 251, 2-Ethylsulfanyl-N-[(3-fluorophenyl)-methyl]-4-methyl-6-[4-(2,2,2-trifluoro-ethyl)-piperazin-1-yl]-pyridine-3-carboxylic acid amide]", "values": [
      {"measurement": "Emax", "value": 97, "unit": "%"},
      {"measurement": "pEC50", "value": 5.80}
    ]},
    {"compound": "CCSc1nc(N2CCOC(C)(C)C2)cc(C)c1C(=O)NCc1cccc(F)c1", "note": "[Example 252, 6-(2,2-Dimethyl-morpholin-4-yl)-2-ethylsulfanyl-N-[(3-fluorophenyl)-methyl]-4-methyl-pyridine-3-carboxylic acid amide]", "values": [
      {"measurement": "Emax", "value": 137, "unit": "%"},
      {"measurement": "pEC50", "value": 6.56}
    ]},
    {"compound": "CCSc1nc(N(C)CC(C)=O)cc(C)c1C(=O)NCc1cccc(F)c1", "note": "[Example 253, 2-Ethylsulfanyl-N-[(3-fluorophenyl)-methyl]-4-methyl-6-[methyl-(2-oxo-propyl)-amino]-pyridine-3-carboxylic acid amide]", "values": [
      {"measurement": "Emax", "value": 79, "unit": "%"},
      {"measurement": "pEC50", "value": 5.24}
    ]},
    {"compound": "CCSc1nc(N2CCO[C@@H](COC)C2)cc(C)c1C(=O)NCc1ccc(Cl)cc1", "note": "[Example 254, N-[(4-Chlorophenyl)-methyl]-2-ethylsulfanyl-6-[(2R)-2-(methoxymethyl)-morpholin-4-yl]-4-methyl-pyridine-3-carboxylic acid amide]", "values": [
      {"measurement": "Emax", "value": 113, "unit": "%"},
      {"measurement": "pEC50", "value": 6.03}
    ]},
    {"compound": "CCSc1nc(N2CCO[C@H](COC)C2)cc(C)c1C(=O)NCc1ccc(Cl)cc1", "note": "[Example 255, N-[(4-Chlorophenyl)-methyl]-2-ethylsulfanyl-6-[(2S)-2-(methoxymethyl)-morpholin-4-yl]-4-methyl-pyridine-3-carboxylic acid amide]", "values": [
      {"measurement": "Emax", "value": 121, "unit": "%"},
      {"measurement": "pEC50", "value": 6.77}
    ]},
    {"compound": "CCSc1nc(N2CCOC[C@H]2COC)cc(C)c1C(=O)NCc1ccc(Cl)cc1", "note": "[Example 256, N-[(4-Chlorophenyl)-methyl]-2-ethylsulfanyl-6-[(3R)-3-(methoxymethyl)-morpholin-4-yl]-4-methyl-pyridine-3-carboxylic acid amide]", "values": [
      {"measurement": "Emax", "value": 221, "unit": "%"},
      {"measurement": "pEC50", "value": 7.00}
    ]},
    {"compound": "CCSc1nc(N2CCOC[C@@H]2COC)cc(C)c1C(=O)NCc1ccc(Cl)cc1", "note": "[Example 257, N-[(4-Chlorophenyl)-methyl]-2-ethylsulfanyl-6-[(3S)-3-(methoxymethyl)-morpholin-4-yl]-4-methyl-pyridine-3-carboxylic acid amide]", "values": [
      {"measurement": "Emax", "value": 125, "unit": "%"},
      {"measurement": "pEC50", "value": 7.64}
    ]},
    {"compound": "CCSc1nc(N(C)C2CCOCC2)cc(C)c1C(=O)NCc1cccc(F)c1", "note": "[Example 258, 2-Ethylsulfanyl-N-[(3-fluorophenyl)-methyl]-4-methyl-6-(methyl-tetrahydro-pyran-4-yl-amino)-pyridine-3-carboxylic acid amide]", "values": [
      {"measurement": "Emax", "value": 170, "unit": "%"},
      {"measurement": "pEC50", "value": 6.52}
    ]},
    {"compound": "CCSc1nc(N(C)C2CCC(OC)CC2)cc(C)c1C(=O)NCc1cccc(F)c1", "note": "(stereo not shown) [Example 259, 2-Ethylsulfanyl-N-[(3-fluorophenyl)-methyl]-6-[(4-methoxy-cyclohexyl)-methyl-amino]-4-methyl-pyridine-3-carboxylic acid amide]", "values": [
      {"measurement": "Emax", "value": 133, "unit": "%"},
      {"measurement": "pEC50", "value": 6.53}
    ]},
    {"compound": "CCSc1nc(N2CCOC(C(F)(F)F)C2)cc(C)c1C(=O)NCc1cccc(F)c1", "note": "(stereo not shown) [Example 260, 2-Ethylsulfanyl-N-[(3-fluorophenyl)-methyl]-4-methyl-6-[2-(trifluoromethyl)-morpholin-4-yl]-pyridine-3-carboxylic acid amide]", "values": [
      {"measurement": "Emax", "value": 127, "unit": "%"},
      {"measurement": "pEC50", "value": 6.83}
    ]},
    {"compound": "CCSc1nc(N(C)C2CCCOC2)cc(C)c1C(=O)NCc1cccc(F)c1", "note": "(stereo not shown) [Example 261, 2-Ethylsulfanyl-N-[(3-fluorophenyl)-methyl]-4-methyl-6-(methyl-tetrahydro-pyran-3-yl-amino)-pyridine-3-carboxylic acid amide]", "values": [
      {"measurement": "Emax", "value": 96, "unit": "%"},
      {"measurement": "pEC50", "value": 6.10}
    ]},
    {"compound": "CCSc1nc(N2C(C)COCC2C)cc(C)c1C(=O)NCc1cccc(F)c1", "note": "(stereo not shown) [Example 262, 6-(3,5-Dimethyl-morpholin-4-yl)-2-ethylsulfanyl-N-[(3-fluorophenyl)-methyl]-4-methyl-pyridine-3-carboxylic acid amide]", "values": [
      {"measurement": "Emax", "value": 182, "unit": "%"},
      {"measurement": "pEC50", "value": 6.43}
    ]},
    {"compound": "CCSc1nc(N2CCOC[C@@H]2CO)cc(C)c1C(=O)NCc1cccc(F)c1", "note": "[Example 263, 2-Ethylsulfanyl-N-[(3-fluorophenyl)-methyl]-6-[(3S)-3-(hydroxymethyl)-morpholin-4-yl]-4-methyl-pyridine-3-carboxylic acid amide]", "values": [
      {"measurement": "Emax", "value": 114, "unit": "%"},
      {"measurement": "pEC50", "value": 5.38}
    ]},
    {"compound": "CCSc1nc(N2CCOC[C@H]2CO)cc(C)c1C(=O)NCc1cccc(F)c1", "note": "[Example 264, 2-Ethylsulfanyl-N-[(3-fluorophenyl)-methyl]-6-[(3R)-3-(hydroxymethyl)-morpholin-4-yl]-4-methyl-pyridine-3-carboxylic acid amide]", "values": [
      {"measurement": "Emax", "value": 184, "unit": "%"},
      {"measurement": "pEC50", "value": 5.81}
    ]},
    {"compound": "Cc1cc(N2CCOC[C@H]2C)nc(C(C)C)c1C(=O)NCc1ccc(Cl)cc1", "note": "[Example 265, N-[(4-Chlorophenyl)-methyl]-2-isopropyl-4-methyl-6-[(3R)-3-methyl-morpholin-4-yl]-pyridine-3-carboxylic acid amide]", "values": [
      {"measurement": "Emax", "value": 206, "unit": "%"},
      {"measurement": "pEC50", "value": 7.55}
    ]},
    {"compound": "CCCc1nc(N2CCOC[C@H]2C)cc(C)c1C(=O)NCc1ccc(Cl)cc1", "note": "[Example 266, N-[(4-Chlorophenyl)-methyl]-4-methyl-6-[(3R)-3-methyl-morpholin-4-yl]-2-propyl-pyridine-3-carboxylic acid amide]", "values": [
      {"measurement": "Emax", "value": 210, "unit": "%"},
      {"measurement": "pEC50", "value": 7.24}
    ]},
    {"compound": "CCSc1nc(N2CCOCC2)cc(C)c1C(=O)NCCC(O)C(C)(C)C", "note": "(stereo not shown) [Example 267, 2-Ethylsulfanyl-N-(3-hydroxy-4,4-dimethyl-pentyl)-4-methyl-6-morpholin-4-yl-pyridine-3-carboxylic acid amide]", "values": [
      {"measurement": "Emax", "value": 223, "unit": "%"},
      {"measurement": "pEC50", "value": 6.61}
    ]},
    {"compound": "CCSc1nc(N2CCOCC2)cc(C)c1C(=O)NCc1ccc(C#N)c(F)c1", "note": "[Example 268, N-[(4-Cyano-3-fluoro-phenyl)-methyl]-2-ethylsulfanyl-4-methyl-6-morpholin-4-yl-pyridine-3-carboxylic acid amide]", "values": [
      {"measurement": "Emax", "value": 142, "unit": "%"},
      {"measurement": "pEC50", "value": 6.54}
    ]},
    {"compound": "Cc1cc(N2CCOCC2)nc(OCCF)c1C(=O)NCc1ccc(Cl)cc1", "note": "[Example 269, N-[(4-Chlorophenyl)-methyl]-2-(2-fluoro-ethoxy)-4-methyl-6-morpholin-4-yl-pyridine-3-carboxylic acid amide]", "values": [
      {"measurement": "Emax", "value": 119, "unit": "%"},
      {"measurement": "pEC50", "value": 6.83}
    ]},
    {"compound": "Cc1cc(N2CCOCC2)nc(OCC(F)F)c1C(=O)NCc1ccc(Cl)cc1", "note": "[Example 270, N-[(4-Chlorophenyl)-methyl]-2-(2,2-difluoro-ethoxy)-4-methyl-6-morpholin-4-yl-pyridine-3-carboxylic acid amide]", "values": [
      {"measurement": "Emax", "value": 97, "unit": "%"},
      {"measurement": "pEC50", "value": 7.62}
    ]},
    {"compound": "Cc1cc(N2CCOCC2)nc(OCC2CC2)c1C(=O)NCc1ccc(Cl)cc1", "note": "[Example 271, N-[(4-Chlorophenyl)-methyl]-2-(cyclopropyl-methoxy)-4-methyl-6-morpholin-4-yl-pyridine-3-carboxylic acid amide]", "values": [
      {"measurement": "Emax", "value": 128, "unit": "%"},
      {"measurement": "pEC50", "value": 7.03}
    ]},
    {"compound": "Cc1cc(N2CCOCC2)nc(OCC(F)F)c1C(=O)NCc1ccc(F)cc1", "note": "[Example 272, 2-(2,2-Difluoro-ethoxy)-N-[(4-fluorophenyl)-methyl]-4-methyl-6-morpholin-4-yl-pyridine-3-carboxylic acid amide]", "values": [
      {"measurement": "Emax", "value": 96, "unit": "%"},
      {"measurement": "pEC50", "value": 7.11}
    ]},
    {"compound": "CCOc1nc(N2CCOC[C@H]2C)cc(C)c1C(=O)NCc1ccc(Cl)cc1", "note": "[Example 273, N-[(4-Chlorophenyl)-methyl]-2-ethoxy-4-methyl-6-[(3R)-3-methyl-morpholin-4-yl]-pyridine-3-carboxylic acid amide]", "values": [
      {"measurement": "Emax", "value": 163, "unit": "%"},
      {"measurement": "pEC50", "value": 6.86}
    ]}
  ]
}
